Test results from PubChem BioAssay AID1963874 (Molecular Pharmacology Branch, DTP, NCI, 2024).

Test system: 253994-281-T-J1-PDC KRAS-mutant spheroids with HUVEC/MSC, viability
Assay: Anticancer human tumor 253994-281-T-J1-PDC patient-derived colorectal carcinoma cell line growth inhibition [KRAS2]
Conditions: for viability, T/C: stronger effect = lower value; active means viability on the fitted dose curve at most 10% of control; inactive means the rest
Summary of the method: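 KRAS-mutant tumor cells were grown as spheroids with HUVEC endothelial cells and human MSCs as stroma. Targeted agents were tested alone and with KRAS pathway inhibitors. Doses started at or near clinical Cmax, or 10 microM, descending half-log.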
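Further: spheroids exposed to agents for seven days before readout.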
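Wherever viability, T/C is given: percent of DMSO vehicle control viability.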

CC(C)n1nc(-c2ccc3oc(N)nc3c2)c2c(N)ncnc21
> 100 nM: IC50 (curve of compound)
inactive: viability, T/C (compound 0.000316 µM) 94.6% [middle of 5 runs] | viability, T/C (compound 0.001 µM) 91.2% [middle of 5 runs] | viability, T/C (compound 0.00316 µM) 88.7% [middle of 5 runs] | viability, T/C (compound 0.01 µM) 83% [middle of 5 runs] | viability, T/C (compound 0.0316 µM) 80.2% [middle of 5 runs] | viability, T/C (compound 0.1 µM) 58.8% [middle of 5 runs]
